Reference: the SangsterLogP compilation

Test: method code SF, from DOI: 10.1007/bf00302523

Structure (SMILES)	logP
COP(=O)(OC)Oc1cc(C)c([N+](=O)[O-])c(C)c1	2.26
COP(=S)(OC)Oc1ccc([N+](=O)[O-])c(C(C)C)c1	4.05
CCc1cc(OP(=S)(OC)OC)ccc1[N+](=O)[O-]	3.74
COP(=S)(OC)Oc1ccc([N+](=O)[O-])c(Cl)c1	3.45
COP(=O)(OC)Oc1ccc([N+](=O)[O-])c(C)c1	1.69
COP(=O)(OC)Oc1ccc([N+](=O)[O-])c(Cl)c1	1.83
COP(=O)(OC)Oc1ccc([N+](=O)[O-])c(C(C)C)c1	2.57
COP(=S)(OC)Oc1ccc([N+](=O)[O-])c(C)c1	3.3
COP(=O)(OC)Oc1ccc([N+](=O)[O-])cc1Cl	1.84
COP(=S)(OC)Oc1ccc([N+](=O)[O-])cc1Cl	3.44
COP(=S)(OC)Oc1cc(C)c([N+](=O)[O-])c(C)c1	3.89
CCc1cc(OP(=O)(OC)OC)ccc1[N+](=O)[O-]	2.19
